The pEC50 is the negative decadic logarithm of the EC50, by convention in mol/L. As usually defined, the pIC50 is the negative decadic logarithm of the IC50, by convention in mol/L.

This is an account of results in ChEMBL document CHEMBL4219030, “Progress in the discovery of small molecule modulators of the Cys-loop superfamily receptors” (Bioorg Med Chem Lett, 2017).

Experiment [1] addresses T1, GABA-A receptor; alpha-1/beta-2/gamma-2 (Homo sapiens, UniProt P14867+P18507+P47870). Put plainly: Positive allosteric modulation of GABAA receptor alpha1beta2gamma2 (unknown origin). Format: protein-complex assay.
The target of experiment [2] is Gamma-aminobutyric acid receptor subunit alpha-4/beta-2/delta (Homo sapiens, UniProt O14764+P47870+P48169). Nature of the experiment: Positive allosteric modulation of GABAA receptor alpha4beta2delta (unknown origin). In kind it is protein-complex assay.
Experiment [3] concerns the target Neuronal acetylcholine receptor subunit alpha-7 (Homo sapiens, UniProt P36544). Nature of the experiment: Inhibition of human alpha7 nAChR expressed in Xenopus oocytes at -80 mV holding potential by electro-physiological analysis. In kind it is cell-based.
Experiment [4] has as its target T2, 5-hydroxytryptamine receptor 3A (Homo sapiens, UniProt P46098).
T2 sequence (P46098 whole entry): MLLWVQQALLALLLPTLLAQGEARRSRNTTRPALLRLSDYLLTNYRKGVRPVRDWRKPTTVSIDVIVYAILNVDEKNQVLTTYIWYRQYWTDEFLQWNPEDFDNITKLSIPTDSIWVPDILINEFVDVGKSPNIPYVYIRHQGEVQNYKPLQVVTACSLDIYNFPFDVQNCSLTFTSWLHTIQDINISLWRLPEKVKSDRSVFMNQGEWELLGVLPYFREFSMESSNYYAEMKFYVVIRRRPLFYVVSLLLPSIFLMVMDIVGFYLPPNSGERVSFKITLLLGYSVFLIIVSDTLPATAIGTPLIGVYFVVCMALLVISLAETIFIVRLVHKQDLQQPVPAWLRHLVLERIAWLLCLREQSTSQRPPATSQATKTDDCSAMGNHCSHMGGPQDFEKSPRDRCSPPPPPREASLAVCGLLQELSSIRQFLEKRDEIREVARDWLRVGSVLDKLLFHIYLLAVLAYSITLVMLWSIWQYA
Put plainly: Antagonist activity at 5-HT3A receptor (unknown origin) assessed as inhibition of serotonin-induced peak currents.

For experiment [5], the target named is Neuronal acetylcholine receptor; alpha4/beta4 (Homo sapiens, UniProt P30926+P43681). Nature of the experiment: Positive allosteric modulation of human alpha4beta4 nAChR expressed in HEK cells preincubated for 15 mins followed by dihydro-beta-erythroidine hydrobromide addition by fluorometric analysis. Format: cell-based.
Experiment [6] can be described thus: Positive allosteric modulation of human (alpha4beta2)2alpha4 nAChR expressed in HEK cells preincubated for 15 mins followed by dihydro-beta-erythroidine hydrobromide addition by fluorometric analysis. In kind it is cell-based. As to conditions: HEK293.
For experiment [7], the target named is Nicotinic acetylcholine receptor alpha2/beta2 (Homo sapiens, UniProt P02708+P17787). Put plainly: Positive allosteric modulation of human alpha2beta2 nAChR expressed in HEK cells preincubated for 15 mins followed by dihydro-beta-erythroidine hydrobromide addition by fluorometric analysis. Format: cell-based.
The target in experiment [8] is T3, Neuronal acetylcholine receptor; alpha4/beta2 (Homo sapiens, UniProt P17787+P43681). Nature of the experiment: Positive allosteric modulation of human alpha4beta2 nAChR expressed in HEK cells preincubated for 15 mins followed by dihydro-beta-erythroidine hydrobromide addition by fluorometric analysis. In kind it is cell-based.
Experiment [9] deals with T3, Neuronal acetylcholine receptor; alpha4/beta2. Put plainly: Positive allosteric modulation of human (alpha4beta2)2beta2 nAChR expressed in HEK cells preincubated for 15 mins followed by dihydro-beta-erythroidine hydrobromide addition by fluorometric analysis. Format: cell-based.
The target of experiment [10] is Nicotinic acetylcholine receptor alpha2/beta4 (Homo sapiens, UniProt P02708+P30926). Nature of the experiment: Positive allosteric modulation of human alpha2beta4 nAChR expressed in HEK cells preincubated for 15 mins followed by dihydro-beta-erythroidine hydrobromide addition by fluorometric analysis. Format: cell-based.
For experiment [11], the target named is GABA A receptor alpha-1/beta-1/gamma-2 (Homo sapiens, UniProt P14867+P18505+P18507). Put plainly: Agonist activity at recombinant human GABAA receptor alpha1beta1gamma2L expressed in Xenopus laevis oocytes incubated for 30 secs by electrophysiological method. Format: cell-based.
The target of experiment [12] is T1, GABA-A receptor; alpha-1/beta-2/gamma-2. Put plainly: Agonist activity at recombinant human GABAA receptor alpha1beta2gamma2L expressed in Xenopus laevis oocytes incubated for 30 secs by electrophysiological method. Format: cell-based.
Experiment [13] concerns the target GABA A receptor alpha-2/beta-2/gamma-2 (Homo sapiens, UniProt P18507+P47869+P47870). Put plainly: Agonist activity at recombinant human GABAA receptor alpha2beta2gamma2L expressed in Xenopus laevis oocytes incubated for 30 secs by electrophysiological method. In kind it is cell-based.
Experiment [14] can be described thus: Positive allosteric modulation of wild-type C57BL/6J mouse mitral cell GABAA receptor at 9 to 10 mV holding potential by whole cell patch-clamp method. (In patch-clamp work, channel activity is measured electrically.)

The structures appear in SMILES notation. pEC50, pIC50: −log10 of the molar value.

T1 sequence (P14867 whole entry): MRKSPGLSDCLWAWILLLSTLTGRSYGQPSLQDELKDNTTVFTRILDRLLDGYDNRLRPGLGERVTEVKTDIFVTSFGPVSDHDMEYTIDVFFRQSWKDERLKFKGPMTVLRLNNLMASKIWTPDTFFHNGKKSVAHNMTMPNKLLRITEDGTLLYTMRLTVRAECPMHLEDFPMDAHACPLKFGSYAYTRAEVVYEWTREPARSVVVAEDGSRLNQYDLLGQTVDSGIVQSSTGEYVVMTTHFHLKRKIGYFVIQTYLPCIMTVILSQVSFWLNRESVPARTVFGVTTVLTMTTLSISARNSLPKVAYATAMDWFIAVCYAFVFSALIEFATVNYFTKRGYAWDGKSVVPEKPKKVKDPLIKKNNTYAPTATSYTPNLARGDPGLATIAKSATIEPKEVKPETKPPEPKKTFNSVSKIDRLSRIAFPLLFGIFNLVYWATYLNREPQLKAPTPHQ
T1 sequence (P47870 whole entry): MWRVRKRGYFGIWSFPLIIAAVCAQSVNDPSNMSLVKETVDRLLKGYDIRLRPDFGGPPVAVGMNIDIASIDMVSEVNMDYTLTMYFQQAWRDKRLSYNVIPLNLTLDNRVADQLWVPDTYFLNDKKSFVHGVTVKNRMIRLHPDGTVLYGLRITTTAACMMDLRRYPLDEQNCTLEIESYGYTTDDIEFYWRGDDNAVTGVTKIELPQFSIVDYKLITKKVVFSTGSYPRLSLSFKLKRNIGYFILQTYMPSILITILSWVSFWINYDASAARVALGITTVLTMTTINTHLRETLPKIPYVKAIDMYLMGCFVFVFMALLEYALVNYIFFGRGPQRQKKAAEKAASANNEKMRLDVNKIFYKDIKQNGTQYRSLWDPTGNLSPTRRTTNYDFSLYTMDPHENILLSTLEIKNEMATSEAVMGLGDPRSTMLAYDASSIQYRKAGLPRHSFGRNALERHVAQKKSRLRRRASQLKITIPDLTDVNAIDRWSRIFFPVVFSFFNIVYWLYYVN
T1 sequence (P18507 whole entry): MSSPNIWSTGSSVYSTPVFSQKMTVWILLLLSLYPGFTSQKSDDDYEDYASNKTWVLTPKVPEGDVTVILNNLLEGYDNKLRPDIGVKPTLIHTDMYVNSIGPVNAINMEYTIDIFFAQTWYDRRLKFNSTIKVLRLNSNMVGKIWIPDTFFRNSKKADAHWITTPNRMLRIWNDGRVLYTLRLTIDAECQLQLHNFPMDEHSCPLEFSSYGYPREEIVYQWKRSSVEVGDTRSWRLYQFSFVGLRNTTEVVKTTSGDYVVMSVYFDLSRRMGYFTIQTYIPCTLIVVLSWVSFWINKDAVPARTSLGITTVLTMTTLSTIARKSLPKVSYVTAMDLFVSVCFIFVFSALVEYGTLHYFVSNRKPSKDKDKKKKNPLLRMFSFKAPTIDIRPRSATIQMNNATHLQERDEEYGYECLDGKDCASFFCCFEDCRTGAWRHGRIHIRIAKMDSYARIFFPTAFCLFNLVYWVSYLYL
T3 sequence (P17787 whole entry): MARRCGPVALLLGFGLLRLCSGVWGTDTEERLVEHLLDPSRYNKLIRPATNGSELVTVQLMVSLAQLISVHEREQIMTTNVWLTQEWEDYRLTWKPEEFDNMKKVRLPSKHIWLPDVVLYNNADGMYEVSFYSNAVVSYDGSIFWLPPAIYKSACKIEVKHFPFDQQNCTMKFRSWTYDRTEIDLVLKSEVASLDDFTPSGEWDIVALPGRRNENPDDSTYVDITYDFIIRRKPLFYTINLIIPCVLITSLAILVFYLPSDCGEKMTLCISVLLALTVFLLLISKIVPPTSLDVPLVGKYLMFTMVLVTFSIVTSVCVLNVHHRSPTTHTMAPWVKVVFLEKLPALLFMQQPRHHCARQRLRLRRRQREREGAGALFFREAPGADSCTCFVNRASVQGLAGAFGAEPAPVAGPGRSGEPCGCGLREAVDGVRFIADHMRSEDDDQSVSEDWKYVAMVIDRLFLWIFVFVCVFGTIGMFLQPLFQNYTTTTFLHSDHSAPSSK
T3 sequence (P43681 whole entry): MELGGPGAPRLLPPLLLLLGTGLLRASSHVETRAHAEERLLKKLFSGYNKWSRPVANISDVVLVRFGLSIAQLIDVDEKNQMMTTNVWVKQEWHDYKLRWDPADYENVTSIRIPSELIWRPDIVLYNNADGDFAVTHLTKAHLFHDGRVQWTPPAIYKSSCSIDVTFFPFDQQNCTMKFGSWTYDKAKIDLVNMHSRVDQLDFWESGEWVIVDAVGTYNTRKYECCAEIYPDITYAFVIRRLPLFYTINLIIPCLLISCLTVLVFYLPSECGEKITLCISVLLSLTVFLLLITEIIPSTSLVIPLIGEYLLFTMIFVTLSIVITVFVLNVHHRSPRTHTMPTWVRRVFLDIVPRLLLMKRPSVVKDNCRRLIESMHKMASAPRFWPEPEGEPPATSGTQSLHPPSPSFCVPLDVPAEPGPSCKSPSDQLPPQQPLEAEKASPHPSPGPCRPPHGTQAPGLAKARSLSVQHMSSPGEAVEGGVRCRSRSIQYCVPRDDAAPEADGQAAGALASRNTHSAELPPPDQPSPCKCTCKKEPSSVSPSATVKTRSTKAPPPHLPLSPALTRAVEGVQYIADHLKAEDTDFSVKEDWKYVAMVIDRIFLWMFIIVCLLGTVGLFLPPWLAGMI
GABA A receptor alpha-2/beta-2/gamma-2, sequence (P47870 whole entry): as the sequence (P47870 whole entry) above
GABA A receptor alpha-2/beta-2/gamma-2, sequence (P18507 whole entry): as the sequence (P18507 whole entry) above
GABA A receptor alpha-2/beta-2/gamma-2, sequence (P47869 whole entry): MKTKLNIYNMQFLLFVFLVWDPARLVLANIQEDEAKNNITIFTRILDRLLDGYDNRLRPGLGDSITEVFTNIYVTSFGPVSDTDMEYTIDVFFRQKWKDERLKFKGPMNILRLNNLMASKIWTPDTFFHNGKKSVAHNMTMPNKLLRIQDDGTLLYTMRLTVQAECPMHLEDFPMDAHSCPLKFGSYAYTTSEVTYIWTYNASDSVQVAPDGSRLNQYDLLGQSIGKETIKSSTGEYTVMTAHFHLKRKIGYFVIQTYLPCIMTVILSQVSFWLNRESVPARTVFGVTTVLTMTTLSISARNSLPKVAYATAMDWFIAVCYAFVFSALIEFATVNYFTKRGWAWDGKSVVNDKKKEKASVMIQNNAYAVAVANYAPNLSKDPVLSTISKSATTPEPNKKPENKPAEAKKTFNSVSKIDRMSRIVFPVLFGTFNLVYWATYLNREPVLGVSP
Gamma-aminobutyric acid receptor subunit alpha-4/beta-2/delta, sequence (P47870 whole entry): as the sequence (P47870 whole entry) above
Gamma-aminobutyric acid receptor subunit alpha-4/beta-2/delta, sequence (P48169 whole entry): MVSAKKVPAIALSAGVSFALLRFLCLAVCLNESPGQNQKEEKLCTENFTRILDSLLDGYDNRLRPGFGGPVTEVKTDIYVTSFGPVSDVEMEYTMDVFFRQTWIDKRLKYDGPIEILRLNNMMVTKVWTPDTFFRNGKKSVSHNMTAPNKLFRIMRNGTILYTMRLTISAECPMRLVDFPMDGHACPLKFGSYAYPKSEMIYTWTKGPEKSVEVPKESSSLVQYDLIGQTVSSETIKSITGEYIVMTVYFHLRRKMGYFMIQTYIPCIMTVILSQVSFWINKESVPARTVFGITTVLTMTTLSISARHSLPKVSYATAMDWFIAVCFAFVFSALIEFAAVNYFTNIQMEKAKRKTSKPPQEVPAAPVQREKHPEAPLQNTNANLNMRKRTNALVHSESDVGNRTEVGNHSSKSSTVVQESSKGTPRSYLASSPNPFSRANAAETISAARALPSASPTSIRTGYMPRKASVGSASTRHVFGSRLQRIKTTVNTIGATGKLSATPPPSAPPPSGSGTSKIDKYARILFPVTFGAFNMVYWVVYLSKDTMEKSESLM
Gamma-aminobutyric acid receptor subunit alpha-4/beta-2/delta, sequence (O14764 whole entry): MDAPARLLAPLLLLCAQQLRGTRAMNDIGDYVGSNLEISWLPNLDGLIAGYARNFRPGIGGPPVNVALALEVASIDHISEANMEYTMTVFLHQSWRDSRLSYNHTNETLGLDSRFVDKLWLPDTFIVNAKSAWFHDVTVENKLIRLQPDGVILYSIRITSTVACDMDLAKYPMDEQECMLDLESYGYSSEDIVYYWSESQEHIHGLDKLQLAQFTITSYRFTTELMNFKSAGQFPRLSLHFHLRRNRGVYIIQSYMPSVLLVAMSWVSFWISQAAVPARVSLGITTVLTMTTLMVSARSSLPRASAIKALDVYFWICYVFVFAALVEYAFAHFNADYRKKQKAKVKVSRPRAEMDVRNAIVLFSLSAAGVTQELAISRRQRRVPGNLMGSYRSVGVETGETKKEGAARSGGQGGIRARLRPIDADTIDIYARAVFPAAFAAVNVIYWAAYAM
GABA A receptor alpha-1/beta-1/gamma-2, sequence (P14867 whole entry): as the sequence (P14867 whole entry) above
GABA A receptor alpha-1/beta-1/gamma-2, sequence (P18507 whole entry): as the sequence (P18507 whole entry) above
GABA A receptor alpha-1/beta-1/gamma-2, sequence (P18505 whole entry): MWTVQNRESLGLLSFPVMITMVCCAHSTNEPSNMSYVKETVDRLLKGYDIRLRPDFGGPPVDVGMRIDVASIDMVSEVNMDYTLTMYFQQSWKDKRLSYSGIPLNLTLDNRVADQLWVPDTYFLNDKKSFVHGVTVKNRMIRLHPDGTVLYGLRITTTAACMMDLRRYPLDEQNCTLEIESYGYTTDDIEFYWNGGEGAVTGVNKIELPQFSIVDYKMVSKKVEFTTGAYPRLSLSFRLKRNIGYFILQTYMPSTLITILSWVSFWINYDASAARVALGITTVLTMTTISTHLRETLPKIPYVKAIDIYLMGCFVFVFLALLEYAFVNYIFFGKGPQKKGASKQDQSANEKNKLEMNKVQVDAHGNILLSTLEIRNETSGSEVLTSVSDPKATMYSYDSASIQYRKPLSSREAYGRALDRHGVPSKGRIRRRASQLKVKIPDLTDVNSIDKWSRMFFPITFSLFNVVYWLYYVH

Regarding `C[C@@]1(O)CC[C@H]2[C@H](CC[C@@H]3[C@@H]2CC[C@]2(C)[C@@H](C(=O)Cn4cc(C#N)cn4)CC[C@@H]32)C1` [ZURANOLONE], the pEC50 in experiment [1] is 6.43; in [2], 6.79.
Regarding `C#CCNc1nc(NCCCCC2CCN(Cc3ccccc3)CC2)c(C#N)cc1C#N`, the pIC50 in experiment [3] is 6.49; in experiment [4], 5.85.
As to `O=C(N[C@@H]1CCCNC1)c1cc2cccc(Br)c2s1`, the pEC50 in experiment [5] was 6.63; in experiment [6], 6.78; in experiment [7] it was 6.18; in [8] it was 6.35; in experiment [9] it was 6.56; in experiment [10], 6.54.
As for `Oc1c(Br)cc(Br)cc1-c1cc(Br)cc(Br)c1O` [BROMOPHENE], the figures for the pEC50 in [11], in experiment [12] and in experiment [13] were 6.49, 6.14 and 5.97, respectively.
`CC1CC(=O)C=C(Nc2ccc(OC(F)(F)F)cc2)C1` (centres undefined) showed a pEC50 in [14] of 4.61.
